In PMC3427410 (Nature chemical biology, 2012):
pIC50: −log10 of the molar value.

Molecular target: T1, FUT7 (Homo sapiens, UniProt Q11130)
T1 sequence (Q11130 1-342): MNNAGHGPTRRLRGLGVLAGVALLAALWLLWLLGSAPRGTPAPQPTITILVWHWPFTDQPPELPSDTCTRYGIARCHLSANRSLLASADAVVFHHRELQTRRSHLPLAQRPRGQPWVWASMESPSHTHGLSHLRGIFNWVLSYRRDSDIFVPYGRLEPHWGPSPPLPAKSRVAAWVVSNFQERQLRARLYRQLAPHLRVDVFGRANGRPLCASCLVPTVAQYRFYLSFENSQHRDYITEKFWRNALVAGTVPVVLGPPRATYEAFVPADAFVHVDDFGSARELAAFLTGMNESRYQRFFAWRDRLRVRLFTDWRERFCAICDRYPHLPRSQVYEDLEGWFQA
Assay: in vitro fucosyltransferase assay, competition with GDP-Fuc transfer
Assay type: biochemical

pIC50: ~5.60
SMILES: Nc1nc2c(ncn2[C@@H]2O[C@H](COP(=O)(O)OP(=O)(O)O[C@H]3O[C@@H](CF)[C@@H](O)[C@@H](O)[C@@H]3O)[C@@H](O)[C@H]2O)c(=O)[nH]1 [compound 6, GDP-6F-Fuc]
